# Experimental data: PubChem BioAssay (NCI)
# Where “and” joins values, the source holds several entries; their conditions need not be identical. Identical values can stand only once.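 Compound exposure: 48 hours, 5 concentrations, 96-well plates. The concentration for 50% growth inhibition is given as GI50. TGI is the concentration that stops growth completely.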
# Assays:
# Test in all cases: inhibition of tumour cell growth, NCI panel, 48 h
# DU-145 prostate = tested on: DU-145 prostate
# EKVX NSCLC = tested on: EKVX NSCLC
# K-562 leukemia = tested on: K-562 leukemia
# KM12 colon = tested on: KM12 colon
# MALME-3M melanoma = tested on: MALME-3M melanoma
# MCF7 breast = tested on: MCF7 breast
# SF-295 CNS = tested on: SF-295 CNS
# T-47D breast = tested on: T-47D breast
SMILES,GI50 (DU-145 prostate),TGI (DU-145 prostate),GI50 (EKVX NSCLC),TGI (EKVX NSCLC),GI50 (K-562 leukemia),TGI (K-562 leukemia),GI50 (KM12 colon),TGI (KM12 colon),GI50 (MALME-3M melanoma),TGI (MALME-3M melanoma),GI50 (MCF7 breast),TGI (MCF7 breast),GI50 (SF-295 CNS),TGI (SF-295 CNS),GI50 (T-47D breast),TGI (T-47D breast)
Cc1cnc(NC(=O)Nc2cc(Br)c(C)cc2OC[C@@H]2CNCCO2)cn1,2.08 µM and 0.659 µM,> 10 µM and 11.5 µM,3.22 µM and 3.24 µM,> 10 µM and 15.9 µM,0.466 µM and 0.419 µM,6.27 µM and 2.5 µM,1.2 µM and 1.19 µM,> 10 µM and 11.9 µM,1.63 µM and 1.94 µM,> 10 µM and 6.55 µM,0.431 µM and 0.418 µM,> 10 µM and 6.15 µM,0.326 µM and 0.263 µM,> 10 µM and 3.02 µM,2.88 µM and 7.86 µM,> 10 µM and 22.3 µM
Cc1ccc(-c2csc(/N=C3\C(=O)Nc4ccccc43)n2)cc1,2.16 µM,5.99 µM,1.52 µM,5.86 µM,1.73 µM,> 100 µM,1.86 µM,4.51 µM,1.52 µM,3.4 µM,1.01 µM,3.11 µM,1.32 µM,2.87 µM,1.36 µM,4.46 µM
CCN(Cc1cccc(F)c1)c1ccc(CO)c(Cl)c1,26.9 µM,> 100 µM,22.3 µM,> 76 µM,3.54 µM,> 100 µM,22.1 µM,> 68.7 µM,20 µM,50.1 µM,0.216 µM,17.8 µM,1.21 µM,> 45.3 µM,0.148 µM,0.662 µM
COc1ccc(S(=O)(=O)N2CC(C)(C)CN(S(=O)(=O)c3ccc(OC)cc3)C2C(=O)NO)cc1,> 20 µM,> 20 µM,12.3 µM,> 20 µM,> 20 µM,> 20 µM,> 20 µM,> 20 µM,5.93 µM,> 20 µM,> 20 µM,> 20 µM,> 20 µM,> 20 µM,> 20 µM,> 20 µM
Fc1ccc2[nH]cc(-c3nonc3-c3c[nH]c4ccc(Br)cc34)c2c1,3.57 µM,13.2 µM,1.88 µM,6.01 µM,2.22 µM,7.38 µM,1.77 µM,4.05 µM,2.34 µM,7.85 µM,2.19 µM,5.66 µM,1.94 µM,4.2 µM,,
Cc1ccc(S(=O)(=O)NC(=O)C2C(=O)CC3(CCCCC3)CC2=O)cc1,,> 100 µM,,61.9 µM,,> 100 µM,,50 µM,,,,55.7 µM,,67.1 µM,,> 100 µM
C=C1C(O)C2C(=C(CCc3ccccc3)C13CC3)C(=O)C(C)(CO)C2O (stereo unspecified),> 100 µM,> 100 µM,> 100 µM,> 100 µM,> 100 µM,> 100 µM,> 100 µM,> 100 µM,> 100 µM,> 100 µM,53.5 µM,> 100 µM,> 100 µM,> 100 µM,,
OCc1ccc(-c2ccc(-c3ccc(CO)o3)[se]2)o1,> 94 µM,> 100 µM,,,38.1 µM,> 100 µM,> 74.3 µM,> 100 µM,> 100 µM,> 100 µM,5.53 µM,> 100 µM,> 40.8 µM,> 100 µM,15.7 µM,> 100 µM
Cc1sc2nc(-c3ccncc3)c(/C=N/N=C(N)N)n2c1C,50.8 µM,> 100 µM,75.9 µM,> 100 µM,34.7 µM,> 100 µM,14.7 µM,37.2 µM,,,,,24.9 µM,72.7 µM,30.7 µM,> 100 µM
C=C(C)C(=O)O[C@H]1C[C@@]23O[C@@H]2CCC(=C[C@H]2OC(=O)C(=C)[C@H]12)COC3O (stereo partly specified),,> 100 µM,,> 100 µM,,44 µM,,> 100 µM,,,,> 100 µM,,> 100 µM,,> 100 µM
Cc1nn(-c2nc3ccccc3[nH]2)c(N)c1-c1ccc(Cl)cc1,6.86 µM,> 100 µM,,,3.55 µM,> 100 µM,4.39 µM,> 100 µM,4.69 µM,> 100 µM,4.31 µM,> 100 µM,,,3.42 µM,> 100 µM
CCOc1ccc2nc(SCc3nc4n(n3)S(=O)(=O)c3ccccc3N4C)sc2c1,> 100 µM,> 100 µM,> 100 µM,> 100 µM,71.2 µM,> 100 µM,,,,,> 100 µM,> 100 µM,> 100 µM,> 100 µM,81.6 µM,> 100 µM
